# US5464617A, “β-lactam compounds” (Hoffmann-La Roche Inc., priority 1994, dated 1995)
# Counter-ions that a name gives are not always drawn.
# Key:
# [1] = tested on: Citrobacter freundii 1982; experiment: MIC in vitro of a 1:4 combination of ceftriaxone with a compound of formula I (Test D); format: cell-based; conditions: 1:4 combination of ceftriaxone with the compound; for MIC C. freundii 1982 (D): Table 4, test D
# Experimental: The minimum inhibitory concentration in vitro ([…]) of a 1:4 combination of ceftriaxone with a compound of formula I against Citrobacter freundii 1982 was measured and compiled in Table 2 hereinafter.
# [2] = tested on: E. coli 1346; experiment: Antibacterial activity of the products per se, serial dilution method in liquid medium (Test E); format: cell-based; conditions: product per se; for MIC E. coli 1346 (E): Table 4, test E
# Source text: The antibacterial activity of the products per se is illustrated on the basis of Table 3 hereinafter, the minimum inhibitory concentration […] in vitro against E. coli 1346 being determined using the serial dilution method in liquid medium: […]
MIC C. freundii 1982 (D) [1],MIC E. coli 1346 (E) [2],MIC C. freundii 1982 ([1]; Table 2),"MIC E. coli 1346 ([2]; Table 3, liquid medium)",Structure (SMILES)
2 µg/mL,4 µg/mL,–,–,"CS(=O)(=O)NCC1=C(C(=O)O)N2C(=O)[C@@H]3[C@H]2[C@H](C1)CN3C(=O)C(F)(F)F [88(b), (1aS,3aR,6bR)-5-Methylsulphonylaminomethyl-1-oxo-2-trifluoroacetyl-1a,2,3,3a,4,6b-hexahydro-1H-2,6a-diazacyclobut[cd]indene-6-carboxylic acid sodium salt]"
1 µg/mL,0.5 µg/mL,–,–,"CC(=O)N1C[C@H]2CC(COC(=O)Nc3ccc(O)cc3)=C(C(=O)O)N3C(=O)[C@@H]1[C@@H]23 [90(a), (1aS,3aR,6bR)-2-Acetyl-5-(4-hydroxy-phenylcarbamoyloxymethyl)-1-oxo-1a,2,3,3a,4,6b-hexahydro-1H-2,6a-diazacyclobut[cd]indene-6-carboxylic acid sodium salt]"
1 µg/mL,0.5 µg/mL,–,–,"O=C(Nc1ccc(O)cc1)OCC1=C(C(=O)O)N2C(=O)[C@@H]3[C@H]2[C@H](C1)CN3C(=O)C(F)(F)F [90(b), (1aS,3aR,6bR)-5-(4-Hydroxy-phenylcarbamoyloxymethyl)-2-trifluoroacetyl-1-oxo-1a,2,3,3a,4,6b-hexahydro-1H-2,6a-diazacyclobut[cd]indene-6-carboxylic acid sodium salt]"
2 µg/mL,4 µg/mL,–,–,"CC(=O)N1C[C@H]2CC(COC(=O)NCC(F)(F)F)=C(C(=O)O)N3C(=O)[C@@H]1[C@@H]23 [92(a), (1aS,3aR,6bR)-2-Acetyl-1-oxo-5-(2,2,2-trifluoroethylcarbamoyloxymethyl)-1a,2,3,3a,4,6b-hexahydro-1H-2,6a-diazacyclobut[cd]indene-6-carboxylic acid sodium salt]"
2 µg/mL,4 µg/mL,–,–,"O=C(NCC(F)(F)F)OCC1=C(C(=O)O)N2C(=O)[C@@H]3[C@H]2[C@H](C1)CN3C(=O)C(F)(F)F [92(b), (1aS,3aR,6bR)-1-Oxo-2-trifluoroacetyl-5-(2,2,2-trifluoroethylcarbamoyloxymethy)-1a,2,3,3a,4,6b-hexahydro-1H-2,6a-diazacyclobut[cd]indene-6-carboxylicacid sodium salt]"
2 µg/mL,2 µg/mL,–,–,"CC(=O)N1C[C@H]2CC(COC(=O)NC3CC3)=C(C(=O)O)N3C(=O)[C@@H]1[C@@H]23 [94(a), (1aS,3aR,6bR)-2-Acetyl-5-cyclopropylcarbamoyloxymethyl-1-oxo-1a,2,3,3a,4,6b-hexahydro-1H-2,6a-diazacyclobut[cd]indene-6-carboxylic acid sodium salt]"
1 µg/mL,2 µg/mL,–,–,"O=C(NC1CC1)OCC1=C(C(=O)O)N2C(=O)[C@@H]3[C@H]2[C@H](C1)CN3C(=O)C(F)(F)F [94(b), (1aS,3aR,6bR)-5-Cyclopropylcarbamoyloxymethyl-1-oxo-2-trifluoroacetyl-1a,2,3,3a,4,6b-hexahydro-1H-2,6 a-diazacyclobut[cd]indene-6-carboxylic acid sodium salt]"
2 µg/mL,8 µg/mL,–,–,"CC(=O)N1C[C@H]2CC(COC(=O)NCC(N)=O)=C(C(=O)O)N3C(=O)[C@@H]1[C@@H]23 [96(a), (1aS,3aR,6bR)-2-Acetyl-5-carbamoylmethylcarbamoyloxymethyl-1-oxo-1a,2,3,3a,4,6b-hexahydro-1H-2,6a-diazacyclobut[cd]indene-6-carboxylic acid sodium salt]"
0.5 µg/mL,2 µg/mL,–,–,"NC(=O)CNC(=O)OCC1=C(C(=O)O)N2C(=O)[C@@H]3[C@H]2[C@H](C1)CN3C(=O)C(F)(F)F [96(b), (1aS,3aR,6bR) 5-Carbamoylmethylcarbamoyloxymethyl-1-oxo-2-trifluoroacetyl-1a,2,3,3a,4,6b-hexahydro-1H-2,6a-diazacyclobut[cd]indene-6-carboxylic acid sodium salt]"
1 µg/mL,2 µg/mL,–,–,"CNC(=O)OCC1=C(C(=O)O)N2C(=O)[C@@H]3[C@H]2[C@H](C1)CN3C(C)=O [98(a), (1aS,3aR,6bR)-2-Acetyl-5-methylcarbamoyloxymethyl-1-oxo-1a,2,3,3a,4,6b-hexahydro-1H-2,6a-diazacyclobut[cd]indene-6-carboxylic acid sodium salt]"
1 µg/mL,2 µg/mL,–,–,"CNC(=O)OCC1=C(C(=O)O)N2C(=O)[C@@H]3[C@H]2[C@H](C1)CN3C(=O)C(F)(F)F [98(b), (1aS,3aR,6bR)-5-Methylcarbamoyloxymethyl-1-oxo-2-trifluoroacetyl-1a,2,3,3a,4,6b-hexahydro-1H-2,6a-diazacyclobut[cd]indene-6-carboxylic acid sodium salt]"
1 µg/mL,1 µg/mL,–,–,"CC(=O)N1C[C@H]2CC(COC(=O)NCc3ccncc3)=C(C(=O)O)N3C(=O)[C@@H]1[C@@H]23 [100(a), (1aS,3aR,6bR)-2-Acetyl-1-oxo-5-(pyridin-4-ylmethylcarbamoyloxymethyl)-1a,2,3,3a,4,6b-hexahydro-1H-2,6a-diazacyclobut[cd]indene-6-carboxylic acid sodium salt]"
1 µg/mL,2 µg/mL,–,–,"O=C(NCc1ccncc1)OCC1=C(C(=O)O)N2C(=O)[C@@H]3[C@H]2[C@H](C1)CN3C(=O)C(F)(F)F [100(b), (1aS,3aR,6bR)-1-Oxo-5-(pyridin-4-ylmethylcarbamoyloxymethyl)-2-trifluoroacetyl-1a,2,3,3a,4,6b-hexahydro-1H-2,6a-diazacyclobut[cd]indene-6-carboxylic acid sodium salt]"
2 µg/mL,0.5 µg/mL,–,–,"N[C@@H](C(=O)N1C[C@H]2CC(COC(=O)NCc3ccncc3)=C(C(=O)O)N3C(=O)[C@@H]1[C@@H]23)c1ccccc1 [100(d), (1aS,3aR,6bR)-2-[(R)-2-phenyl-glycyl]-1-oxo-5-(pyridin-4-ylmethylcarbamoyloxymethyl)-1a,2,3,3a,4,6b-hexahydro-1H-2,6a-diazacyclobut[cd]indene-6-carboxylic acid hydrochloride]"
2 µg/mL,0.5 µg/mL,–,–,"CC(=O)N1C[C@H]2CC(COC(=O)NCc3ccc(O)cc3)=C(C(=O)O)N3C(=O)[C@@H]1[C@@H]23 [102(a), (1aS,3aR,6bR)-2-Acetyl-5-[(4-hydroxy-benzyl)-carbamoyloxymethyl]-1-oxo-1a,2,3,3a,4,6b-hexahydro-1H-2,6a-diazacyclobut[cd]indene-6-carboxylic acid sodium salt]"
2 µg/mL,1 µg/mL,–,–,"O=C(NCc1ccc(O)cc1)OCC1=C(C(=O)O)N2C(=O)[C@@H]3[C@H]2[C@H](C1)CN3C(=O)C(F)(F)F [102(b), (1aS,3aR,6bR)-5-[(4-Hydroxy-benzyl)-carbamoyloxymethyl]-2-trifluoroacetyl-1-oxo-1a,2,3,3a,4,6b-hexahydro-1H-2,6a-diazacyclobut[cd]indene-6-carboxylicacid sodium salt]"
–,–,1 µg/mL,4 µg/mL,"Cc1nnc(SC2=C(C(=O)O)N3C(=O)[C@H]4NC[C@@H](C2)[C@H]43)s1 [Example 2(b), (1aS,3aR,6bR)-5-(5-Methyl-1,3,4-thiadiazol-2-ylsulphanyl)-1-oxo-1a, 2,3,3a,4,6b-hexahydro-1H-2,6a-diazcyclobut[cd]indene-6-carboxylic acid trifluoroacetate]"
